Here are results for five compounds from patent US9314541B2, “In vivo imaging method for cancer” (GE Healthcare Limited, priority 2010, dated 2016).

Data set [1] can be described thus: In vivo biodistribution method. The arrangement: species or system Wistar rats. The following applies: for OB:Str 30 min: ratio olfactory bulb to striatum, 30 min after injection.
Procedure: Imaging agents of the invention were tested in an in vivo biodistribution model.
Adult male Wistar rats (200-300 g) were injected with 1-3 MBq of test compound via the lateral tail vein. At 2, 10, 30 or 60 min (n=3) after injection, rats were euthanised and tissues or fluids were sampled for radioactive measurement on a gamma counter.
For data set [2] the following is noted: cited from earlier work.
Another data set concerns the target PBR (Homo sapiens, UniProt P30536). The conditions noted are these: in vivo; cited from earlier work.
The target of the next data set is T1, Wistar rat heart PBR (Rattus norvegicus, UniProt P16257).
T1 construct: from tissue; host or cells: Wistar rat heart
The data set is described as follows: In vitro potency assay: competition against 0.3 nM [3H]PK-11195 for binding to PBR. The conditions noted are these: non-radioactive analogues tested; vs 0.3 nM [3H]PK-11195; 50 mM Tris-HCl pH 7.4, 10 mM MgCl2, 15 minutes at 25° C. Here is the method:
Non-radioactive analogues of in vivo imaging agents of the invention were tested.
The reaction was carried out in 50 mM Tris-HCl, pH 7.4 10 mM MgCl2 for 15 minutes at 25° C.

The conditions of data set [3]: compared with 11C-PK11195; cited from earlier work.

One may read the Ki as a dissociation constant, usually derived from enzyme kinetics or from competition with a known ligand.

Sequence of PBR (P30536 whole entry, species assumed): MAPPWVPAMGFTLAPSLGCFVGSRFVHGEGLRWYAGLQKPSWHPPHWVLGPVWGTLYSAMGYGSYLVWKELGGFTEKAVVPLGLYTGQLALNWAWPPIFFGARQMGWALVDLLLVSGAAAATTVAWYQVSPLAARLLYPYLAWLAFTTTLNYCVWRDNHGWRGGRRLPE

On to `O=C(C1CCCc2c1c1ccccc1n2CC[18F])N1CCCCCC1` (stereo not shown) [compound 9], for which the “Brain 2 min (% ID/g)” value in data set [1] (brain, 2 min after injection via lateral tail vein, 1-3 MBq, adult male Wistar rats) stood at 0.56 % ID/g. In addition, in data set [1] (olfactory bulb, 30 min after injection via lateral tail vein, adult male Wistar rats), the “OB 30 min (% ID/g)” value came out at 0.41 % ID/g. Also, the “OB:Str 30 min” value in data set [1] was found to be 3.72.

Consider `CC[C@H](C)N([11CH3])C(=O)c1cc2ccccc2c(-c2ccccc2Cl)n1` [[^11C]PK11195], for which the plasma protein binding entry in data set [2] is “high and variable”. Moreover, on PBR, the brain uptake result is “relatively low and variable”; the “levels of non-specific binding” value is reported as “relatively high”.

As to `CN(Cc1ccccc1)C(=O)C1CCCc2c1c1ccccc1n2CC[18F]` (stereo not shown) [compound 7], the “OB:Str 30 min” value in data set [1] was 3.40.

`CCN(CC)C(=O)C1CC(C)Cc2c1c1ccccc1n2CC[18F]` (stereo not shown) [compound 11]: the inhibitory constant (Ki) at Wistar rat heart PBR is 2.12 nM. Moreover, in data set [1], the “OB:Str 30 min” value was determined as 3.50.

In the case of `CCN(CC)C(=O)Cc1c(-c2ccc(OCC[18F])cc2)nn2c(C)cc(C)nc12` [^18F-DPA-714], in data set [3], the bioavailability entry is “increased”.
